Data from US20190016746A1, “AMINOGLYCOSIDE DERIVATIVES AND USES THEREOF IN TREATING GENETIC DISORDERS” (Eloxx Pharmaceuticals Ltd., priority 2016, published 2019).
Like-named read-outs stand apart in the source and are kept apart here.

Legend:
[1] = target: eukaryotic cytoplasmic ribosome; assay: Eukaryotic in vitro translation inhibition, TNT T7 Quick Coupled Transcription/Translation System with luciferase plasmid; format: biochemical; conditions: for IC50: read-out: Translation Inhibition IC50^Euk; for more specific to the eukaryotic ribosome than structurally related compound: NB156 vs NB74, NB157 vs NB124
Description: (§1) Prokaryotic in vitro translation inhibition by the different aminoglycosides was quantified in coupled transcription/translation assays by using E. coli S30 extract for circular DNA with the pBESTluc plasmid (Promega), according to the manufacturer's protocol. Translation reactions (25 μL) that contained variable concentrations of the tested aminoglycoside were incubated at 37° C. for 60 minutes, cooled on ice for 5 minutes, and diluted with a dilution reagent (tris-phosphate buffer (25 mM, pH 7.8), DTT (2 mM), 1,2-diaminocyclohexanetetraacetate (2 mM), glycerol (10%), Triton X-100 (1%) and BSA (1 mg mL-1)) into 96-well plates. Eukaryotic in vitro translation inhibition was quantified by use of TNT® T7 Quick Coupled Transcription/Translation System with a luciferase T7 control DNA plasmid (Promega), according to the manufacturer protocol. Translation reactions (25 μL) containing variable concentrations of the tested aminoglycoside were incubated at 30° C. for 60 minutes, cooled on ice for 5 minutes, diluted with the dilution reagent and transferred into 96-well plates. In both prokaryotic and eukaryotic systems the luminescence was measured immediately after the addition of the Luciferase Assay Reagent (50 μL; Promega), and the light emission was recorded with a FLx800 Fluorescence Microplate Reader (Biotek). The half-maximal inhibition concentration (IC50) values were obtained from fitting concentration-response curves to the data of at least two independent experiments by using Grafit 5 software.
(§2) In all biological tests, all AGs were in their sulfate salt forms, and the concentrations refer to the free amine form of each AG. The eukaryotic and prokaryotic half-maximal-inhibition values (IC50^Euk and IC50^Pro) were quantified in coupled transcription/translation assays by using active luciferase detection as previously described. Minimal inhibitory concentration (MIC) values were determined by using the double-microdilution method.

E. coli R477-100 = assay: Antibacterial activity, MIC by double-microdilution method; format: cell-based; conditions: for MIC: Escherichia coli, R477100, read-out: Antibacterial activity MIC E. coli R477/100
Description: (§3) Comparative antibacterial activities were determined in two representative strains of Gram-negative (E. coli R477-100) and Gram-positive (B. subtilis ATCC-6633) bacteria, by measuring the MIC values using the double-microdilution method according to the National Committee for Clinical Laboratory Standards (NCCLS) (NCCLS. National Committee for Clinical Laboratory Standards, Performance standards for antimicrobial susceptibility testing. Fifth information supplement: Approved Standard M100-S5; Villanova, Pa.: NCCLS, 1994.).
as §2

[2] = system: prokaryotic ribosome (E. coli S30 extract); assay: Prokaryotic in vitro translation inhibition, E. coli S30 extract with pBESTluc plasmid; format: biochemical; conditions: read-out: Translation Inhibition IC50^Pro
Description: as §1, §2

[3] = system: nonsense constructs R3X (USH1), R245X (USH1), Q70X (HS), G542X (CF); assay: Dual luciferase in vitro readthrough assay, four nonsense constructs; format: biochemical; conditions: all mutations tested, FIGS. 4A-D; for readthrough activity relative to structurally related compound lacking 7′-hydroxyl: NB156 vs NB74, NB157 vs NB124
Text: (§4) DNA fragments derived from PCDH15, CFTR, and IDUA cDNAs, including the tested nonsense mutation or the corresponding wild type (wt) codon, and four to six upstream and downstream flanking codons were created by annealing the following pairs of complementary oligonucleotides:
(§5) Fragments were inserted in frame into the polylinker of the p2Luc plasmid between either BamHI and SacI (p.R3X and p.R245X) or SalI and SacI (all the rest) restriction sites. For the in vitro readthrough assays, the obtained plasmids, with addition of the tested aminoglycosides were transcribed and translated using the TNT Reticulocyte Lysate Quick Coupled Transcription/Translation System. Luciferase activity was determined after 90 minutes of incubation at 30° C., using the Dual Luciferase Reporter Assay System (Promega™).
Activity was tested using a collection of dual-luciferase reporter plasmids, containing different sequence contests around premature stop codons derived from the PCDH15, CFTR, and IDUA genes that underline USH1, CF, and MPS I-H, respectively. The exemplified nonsense reporters were R3X and R245X for USH1, G542X for CF, and Q70X for MPS I-H.
The results are averages of at least three independent experiments.

[4] = system: stop codon mutations of Table 3; assay: Dual-luciferase readthrough assay, broad arsenal of stop codon mutations; format: biochemical; conditions: all tested mutations
Description: In these assays, the readthrough of a broad arsenal of stop codon mutations in the presence of NB156 and NB157 was tested. Briefly, NB156 and NB157 were tested at escalating doses for their read-through properties towards the nonsense mutation using the wild-type (WT) sequence of each specific complementary DNA (cDNA) as a control, and plasmids bearing the stop codon mutations in a dual-luciferase assay. DNA fragments derived from different cDNAs were prepared using either the WT or nonsense mutation, in which the sequences from the mutant or wild-type codon were surrounded by four to six upstream and downstream flanking codons. The cDNA sequence was inserted into the polylinker of the p2luc plasmid for each sequence.

human fibroblast cells = conditions: cited from earlier work
B. subtilis ATCC-6633 = assay: Antibacterial activity, MIC by double-microdilution method; format: cell-based; conditions: Table 2
Description: as §3, §2

[5] = system: R3X nonsense mutation construct representing USH1 (PCDH15); assay: Dual luciferase in vitro readthrough assay, R3X construct; format: biochemical; conditions: FIG. 3
Text: as §4, §5
FIG. 3 presents comparative plots showing in vitro stop codon suppression levels induced by Compound 1 (-▪-), NB153 (-▴-), and NB155 (-Δ-) in R3X nonsense mutation construct representing USH1 genetic disease.

[6] = system: premature termination codon (PTC); assay: Comparative in-vitro PTC suppression activity assays (Example 3); format: biochemical; conditions: preliminary
Description: as §5

[7] = Table 2, sulfate salts, concentrations refer to free amine form

| Compound | IC50 ([1]; Table 4) | IC50 ([2]; Table 4) | IC50 [1, 7] | IC50 [2, 7] | also measured |
| --- | --- | --- | --- | --- | --- |
| NC[C@H]1O[C@@H](O[C@@H]2C(O)[C@H](N)CC(N)[C@H]2O[C@H]2OC(CO)=CC(O)[C@@H]2N)C(O)[C@H]1O (stereo partly shown) [NB158] | 70.7 ± 2.4 µM | 36.4 ± 3.5 µM |  |  | MIC (E. coli R477-100): > 192 µg/mL |
| NC[C@H]1O[C@@H](OC2C(O)[C@H](N)CC(N)[C@H]2O[C@H]2OC(CO)[C@@H](O)C(O)C2N)C(O)C1O (stereo partly shown) [NB30, reference compound] | 31 ± 4 µM | 0.45 ± 0.03 µM |  |  |  |
| NC[C@H]1O[C@@H](O[C@@H]2[C@@H](O)[C@H](N)C[C@H](N)[C@H]2O[C@H]2O[C@H]([C@H](O)CO)[C@@H](O)[C@H](O)[C@H]2N)[C@@H](O)[C@H]1O [NB156, (2R,3S,4R,5R,6S)-5-amino-6-(((1R,2R,3S,4R,6S)-4,6-diamino-2-(((2S,3S,4R,5R)-5-(aminomethyl)-3,4-dihydroxytetrahydrofuran-2-yl)oxy)-3-hydroxycyclohexyl)oxy)-2-((R)-1,2-dihydroxyethyl)tetrahydro-2H-pyran-3,4-diol] |  |  | 7.5 ± 0.5 µM | 0.7 ± 0.1 µM | more specific to the eukaryotic ribosome than structurally related compound [1]: 1.85 fold; readthrough activity relative to gentamicin [3]: significantly better; readthrough activity relative to structurally related compound lacking 7′-hydroxyl [3]: substantially better; stop-codon mutation readthrough activity compared to NB74 [4]: more active than NB74 |
| C[C@H](N)[C@H]1O[C@@H](OC2C(O)[C@H](N)CC(N)[C@H]2O[C@H]2OC(CO)[C@@H](O)C(O)C2N)C(O)C1O (stereo partly shown) [NB118, reference compound] | 15.5 ± 1.3 µM | 1.9 ± 0.2 µM |  |  |  |
| C[C@H](N)[C@H]1O[C@@H](O[C@@H]2[C@@H](O)[C@H](N)C[C@H](N)[C@H]2O[C@H]2O[C@H]([C@H](O)CO)[C@@H](O)[C@H](O)[C@H]2N)[C@@H](O)[C@H]1O [NB157, (2R,3S,4R,5R,6S)-5-amino-6-(((1R,2R,3S,4R,6S)-4,6-diamino-2-(((2S,3S,4R,5R)-5-((S)-1-aminoethyl)-3,4-dihydroxytetrahydrofuran-2-yl)oxy)-3-hydroxycyclohexyl)oxy)-2-((R)-1,2-dihydroxyethyl)tetrahydro-2H-pyran-3,4-diol] |  |  | 1.2 µM |  | more specific to the eukaryotic ribosome than structurally related compound [1]: 1.25 fold; readthrough activity relative to gentamicin [3]: significantly better; readthrough activity relative to structurally related compound lacking 7′-hydroxyl [3]: better |
| CN[C@@H]1[C@@H](O)[C@@H](O[C@@H]2[C@@H](O)[C@H](O[C@H]3O[C@H]([C@@H](C)O)[C@@H](O)[C@H](O)[C@H]3N)[C@@H](N)C[C@H]2N)OC[C@]1(C)O [Compound G418, geneticin] |  |  |  |  | LD50 (human fibroblast cells): 0.04 mg/mL |
| gentamicin [reference compound] |  |  | 62 µM | 0.03 µM | Antibacterial Activity MIC B. Subtilis ATCC6633 (B. subtilis ATCC-6633): <0.75 µM; Antibacterial Activity MIC E. Coli R 477/100 (E. coli R477-100; Table 2): 6 µM |
| N[C@H]1[C@@H](O[C@H]2[C@H](O)[C@@H](O)[C@H](N)C[C@@H]2N)O[C@H](CO)[C@@H](O)[C@@H]1O [Paro., paromamine, reference compound] | 760 ± 79 µM | 14 ± 1.2 µM |  |  |  |
| N[C@H]1[C@@H](O[C@H]2[C@H](O)[C@@H](O)[C@H](N)C[C@@H]2N)O[C@H]([C@H](O)CO)[C@@H](O)[C@@H]1O [NB153, (2R,3S,4R,5R,6S)-5-amino-6-(((1R,2R,3S,4R,6S)-4,6-diamino-2,3-dihydroxycyclohexyl)oxy)-2-((R)-1,2-dihydroxyethyl)tetrahydro-2H-pyran-3,4-diol] |  |  | 120 ± 14.5 µM | 11 ± 1.2 µM | in vitro readthrough activity relative to Compound 1 [5]: dramatically increases |
| N[C@H]1[C@@H](O[C@H]2[C@H](O)[C@@H](O)[C@H](N)C[C@@H]2N)O[C@H]([C@@H](O)CO)[C@@H](O)[C@@H]1O [NB155, (2R,3S,4R,5R,6S)-5-amino-6-(((1R,2R,3S,4R,6S)-4,6-diamino-2,3-dihydroxycyclohexyl)oxy)-2-((S)-1,2-dihydroxyethyl)tetrahydro-2H-pyran-3,4-diol] |  |  | 516 ± 15 µM | 91.9 ± 8.4 µM | in vitro readthrough activity relative to Compound 1 [5]: somewhat higher activity |
| CC(O)C1O[C@H](O[C@@H]2C(N)C[C@@H](N)C(O)C2O[C@@H]2O[C@H]([C@H](C)N)C(O)C2O)C(N)C(O)[C@@H]1O (single isomer, unassigned) [NB124, reference compound] |  |  | 1.5 ± 0.1 µM | 1.1 ± 0.2 µM | MIC (E. coli R477-100): 1270 µM |
| C[C@H](N)[C@H]1O[C@@H](O[C@@H]2C(O)[C@H](N)CC(N)[C@H]2O[C@H]2OC(CO)=CC(O)[C@@H]2N)C(O)[C@H]1O (stereo partly shown) [NB159] | 47.9 ± 3.3 µM | 134 ± 2.8 µM |  |  | MIC (E. coli R477-100): > 192 µg/mL |
| N[C@H]1[C@@H](O[C@H]2[C@H](O)[C@@H](O)[C@H](N)C[C@@H]2N)OC(CO)=C[C@@H]1O [NB154, (1S,2R,3R,4S,6R)-4,6-diamino-3-(((2S,3R,4S)-3-amino-4-hydroxy-6-(hydroxymethyl)-3,4-dihydro-2H-pyran-2-yl)oxy)cyclohexane-1,2-diol] | 376 ± 38.6 µM | 82.3 ± 11.9 µM |  |  | readthrough activity relative to NB82 [6]: more or less similar activity; readthrough activity relative to paromamine [6]: ~3.5 fold |
